Where two headings read alike, the source gives them in different places.
Legend:
[1] = test system: Amycolatopsis NA40 (DSMZ 11617); assay: Activity for 3-cyanopyridine, microorganism (comparison in basal medium); assay type: cell-based
Description: (§1) (1) For determination of the nitrile hydratase activity, a reaction mixture (2 ml) containing 3-cyanopyridine (1.0 M, 1.0 ml), potassium phosphate buffer (pH 7.0, 0.1 M, 0.5 ml) and 0.5 ml of cell suspension were incubated at 20° C. for 30 min with stirring. The reaction was stopped by addition of 0.2 ml of 3 N HCl. After centrifuging briefly, the nicotinamide formed was determined by means of HPLC (Shimadzu SPD 6A system using a C18 column (Develosil ODS-HG-5. […]); eluent: 10 mM KH2PO4/H3PO4 (pH 2.8)/acetonitrile 9:1 (v/v); flow rate: 1 ml/min; the absorption was measured at 230 nm). The specific activity was expressed as µmol of nicotinamide formed/ml/min/OD610 nm.
(§2) The reaction rates of aliphatic nitriles in the enrichment medium (Table 1) with isolated bacteria is summarized in Table 5, the effects of inducers and cofactors in the basal medium (Table 2) is summarized in Table 4 and the activity comparison of Amycolatopsis to Rhodoccus in the basal medium (Table 2) is summarized in Table 6.

[2] = test system: Rhodococcus rhodochrous J1; assay: as above; assay type: cell-based
Description: as §1, §2

[3] = test system: Purified enzyme from NA40 (nitrile hydratase); assay: Activity for 3-cyanopyridine, purified enzyme; assay type: biochemical, Amycolatopsis NA40
Description: […] The reaction was stopped by addition of 0.2 ml of 3 N HCl. After centrifuging briefly, the nicotinamide formed was determined by means of HPLC (Shimadzu SPD 6A system using a C18 column (Develosil ODS-HG-5. […]); eluent: 10 mM KH2PO4/H3PO4 (pH 2.8)/acetonitrile 9:1 (v/v); flow rate: 1 ml/min; the absorption was measured at 230 nm). The specific activity was expressed as µmol of nicotinamide formed/ml/min/OD610 nm.
as §2

[4] = target: T1, Purified enzyme from J1 (nitrile hydratase) (Rhodococcus rhodochrous, UniProt P21219+P21220); assay: Activity for 3-cyanopyridine, purified enzyme; assay type: biochemical
T1 construct: host or cells: Rhodococcus rhodochrous J1 (native producer)

[5] = test system: NA40 nitrile hydratase (resting NA40 cells); assay: Substrate specificity of resting NA40 cells; assay type: cell-based, Amycolatopsis NA40
Description: (3) For determination of the activity of NA40 with respect to a number of substrates, cells having a dry weight of 0.0388 mg were incubated in the buffer described above. The reaction was started by addition of the appropriate substrate and incubated at 20° C. with shaking for 10 min. The reaction was stopped by addition of 0.2 ml of 2 N HCl and the reaction mixture was briefly centrifuged. The supernatant was analysed by means of HPLC or gas chromatography.

[6] = test system: purified nitrile hydratase from NA40; assay: Substrate specificity of the purified nitrile hydratase; assay type: biochemical, Amycolatopsis NA40
Description: The substrate specificity was determined analogously to Example 2 (1).
1.7 Units of enzyme were added to the reaction mixture (2.0 ml). The reaction mixture contained the respective substrate in 45 mM phosphate buffer (pH 7.0).

[7] = test system: nitrile hydratase of NA40; assay: Determination of the KM value (Lineweaver-Burk diagram); assay type: biochemical, Amycolatopsis NA40; conditions: substance as substrate; 20 ° C., 45 mM phosphate buffer, pH 7.0
Description: The KM value was determined to be 41.7 mM for 3-cyanopyridine and to be 3.7 mM for acrylonitrile by means of the Lineweaver-Burk diagram. […] This is one of the main advantages of NA40.

[8] = test system: Rhodococcus rhodochrous J1; assay: Substrate specificity of the Rhodococcus strains; assay type: cell-based
Description: (§3) Rhodococcus rhodochrous J1 was cultured for 72 h in the medium described in EP-A 0 307 926. The microorganisms Rhodoccus GF674, GF578, GF270 and GF376 were cultured in the following media at pH 7.0 for up to 96 h:
(§4) The substrate specificity is summarized as relative activity in Table 15.

[9] = test system: Rhodococcus GF270; assay: Substrate specificity of the Rhodococcus strains; assay type: cell-based
Description: as §3
(§5) Rhodoccus GF674 in a medium comprising yeast extract 1.0 g/l, fructose 5.0 g/l, malt extract 10.0 g/l, acetamide 5.0 g/l, KH2PO4 2.0 g/l, MgSO47H2O 0.5 g/l and CoCl2.6H2O 10.0 mg. Rhodoccus GF578 in a medium containing yeast extract 1.0 g/l, fructose 15.0 g/l, malt extract 10.0 g/l, acetamide 25.0 g/l, KH2PO4 2.0 g/l, MgSO47H2O 0.5 g/l and CoCl2.6H2O 5.0 mg. […] Rhodoccus GF3 76 in a medium containing yeast extract 1.0 g/l, sodium citrate 10.0 g/l, malt extract 15.0 g/l, butyramide 7.5 g/l, KH2PO4 2.0 g/l, MgSO4.7H2O 0.5 g/l and CoCl2.6H2O 15.0 mg.
as §4

[10] = test system: Rhodococcus GF376; assay: Substrate specificity of the Rhodococcus strains; assay type: cell-based
Description: as §3, §5, §4

[11] = test system: Rhodococcus GF578; assay: Substrate specificity of the Rhodococcus strains; assay type: cell-based
Description: as §3, §5, §4

[12] = test system: Rhodococcus GF674; assay: Substrate specificity of the Rhodococcus strains; assay type: cell-based
Description: as §3, §5, §4

[13] = test system: Rhodoccus rhodochrous J1; assay: Tolerance of 3-cyanopyridine on the activity of resting cells; assay type: cell-based, Rhodococcus rhodochrous J1; conditions: substrate concentration of 2% (w/v), resting cells 15 min at 20° C.
Description: (§6) In order to test the tolerance of 3-cyanopyridine, resting cells were incubated for 15 min at 20° C. at concentrations of 3-cyanopyridine between 1 and 10% (w/v) and the cells were then removed by centrifugation. After washing the cells with 0.85% NaCl, the remaining activity was measured.
(§7) The tolerance of 3-cyanopyridine as a substrate was tested at various substrate concentrations.

[14] = test system: Rhodoccus GF674; assay: as above; assay type: cell-based, Rhodococcus GF674; conditions: substrate concentration of 4% (w/v), resting cells 15 min at 20° C.
Description: as §6, §7

[15] = test system: Rhodoccus GF578; assay: as above; assay type: cell-based, Rhodococcus GF578; conditions: up to a substrate concentration of 8%, resting cells 15 min at 20° C.
Description: as §6, §7

[16] = test system: Rhodoccus GF270; assay: as above; assay type: cell-based, Rhodococcus GF270; conditions: substrate concentration of 4% (w/v), resting cells 15 min at 20° C.
Description: as §6, §7

[17] = test system: Rhodoccus GF376; assay: as above; assay type: cell-based, Rhodococcus GF376; conditions: substrate concentration of 10% (w/v), resting cells 15 min at 20° C.
Description: as §6, §7

[18] = test system: Actinomadura spadix E3733; assay: Conversion rates of aliphatic nitriles using the isolated bacteria (enrichment medium); assay type: cell-based
Description: (§8) a) Various soil samples were inoculated with various nitriles or amides as a C and N source in the enrichment medium according to Table 1 and incubated at 37° C. or 45° C. for 7 10 days. The cultures were then transferred to the same medium and again cultured at 37° C. for 7 10 days. The whole process was repeated 3 times. The cultures were then diluted and plated out in order to obtain individual colonies. The plates were incubated at 37° C. for 5 days. The different colonies were then tested for the desired activity.
(§9) […] as a C and N source for Amycolatopsis NE31 (DSMZ 11616) Actinomadura spadix E3733 and Actinomadura spadix E3736, azelanitrile served as a C and N source for Amycolatopsis NA40 (DSMZ 11617) and Actinomadura spadix 45A32, n-octanenitrile served as a C and N source for Actinomadura spadix 4501 and cyanoacetic acid served as a C and N source for Actinomadura spadix C15.
as §1, §2

[19] = test system: Actinomadura spadix E3736; assay: as above; assay type: cell-based
Description: as §8, §9, §1, §2

[20] = test system: Amycolatopsis NE31 (DSMZ 11616); assay: as above; assay type: cell-based
Description: as §8, §9, §1, §2

[21] = test system: Actinomadura spadix 45A32; assay: as above; assay type: cell-based
Description: as §8, §9, §1, §2

[22] = test system: Amycolatopsis NA40 (DSMZ 11617); assay: as above; assay type: cell-based
Description: as §8, §9, §1, §2

[23] = test system: Actinomadura spadix C15; assay: as above; assay type: cell-based
Description: as §8, §9, §1, §2

[24] = test system: purified nitrile hydratase from NA40; assay: Substrate specificity of the purified nitrile hydratase; assay type: biochemical, Amycolatopsis NA40; conditions: pH 7
[25] = resting NA40 cells, 20° C., 10 min, 3-cyanopyridine = 100, substrate concentration per Table 8
[26] = purified enzyme, 3-cyanopyridine = 100
[27] = Rhodococcus rhodochrous J1, 3-cyanopyridine = 100
[28] = Rhodococcus GF270, 3-cyanopyridine = 100
[29] = Rhodococcus GF376, 3-cyanopyridine = 100
[30] = Rhodococcus GF578, 3-cyanopyridine = 100
[31] = Rhodococcus GF674, 3-cyanopyridine = 100

T1 sequence (P21219 2-203 limits assumed): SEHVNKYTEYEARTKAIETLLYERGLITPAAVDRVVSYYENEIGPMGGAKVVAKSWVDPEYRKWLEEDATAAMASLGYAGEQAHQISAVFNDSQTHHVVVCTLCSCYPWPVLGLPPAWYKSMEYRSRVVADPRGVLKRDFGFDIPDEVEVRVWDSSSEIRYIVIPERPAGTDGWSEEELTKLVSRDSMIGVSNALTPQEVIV
T1 sequence (P21220 whole entry): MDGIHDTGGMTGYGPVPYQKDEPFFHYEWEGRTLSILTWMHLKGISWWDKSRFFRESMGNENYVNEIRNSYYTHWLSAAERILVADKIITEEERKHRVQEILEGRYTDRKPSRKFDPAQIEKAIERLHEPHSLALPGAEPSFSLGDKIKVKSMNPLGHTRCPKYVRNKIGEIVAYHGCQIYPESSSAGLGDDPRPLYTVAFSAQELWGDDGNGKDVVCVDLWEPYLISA

SMILES: N#Cc1cccnc1 [3-Cyanopyridine]
- Activity for 3-cyanopyridine [1]: 303 µmol/mL/min
- Activity for 3-cyanopyridine [2]: 314
- Activity for 3-cyanopyridine [3]: 1110 μmol/min/mg protein
- Activity for 3-cyanopyridine [4]: 371 μmol/min/mg protein
- Relative activity [5, 25]: 100%
- Relative activity, Enzyme reaction [6, 26]: 100%
- Km [7]: 41.7 mM
- relative activity (substrate specificity) [8, 27]: 100%
- relative activity (substrate specificity) [9, 28]: 100%
- relative activity (substrate specificity) [10, 29]: 100%
- relative activity (substrate specificity) [11, 30]: 100%
- relative activity (substrate specificity) [12, 31]: 100%
- nitrile hydratase activity decreased by the factor [13]: 1.4
- nitrile hydratase activity decreased by the factor [14]: 1.4
- nitrile hydratase activity [15]: remained nearly constant
- nitrile hydratase activity decreased by the factor [16]: 1.17
- nitrile hydratase activity decreased by the factor [17]: 1.25

SMILES: C=CC#N [Acrylonitrile]
- Relative activity [5, 25]: 115%
- Relative activity, Enzyme reaction [6, 26]: 94%
- Km [7]: 3.7 mM
- relative activity (substrate specificity) [8, 27]: 478%
- relative activity (substrate specificity) [9, 28]: 192%
- relative activity (substrate specificity) [10, 29]: 257%
- relative activity (substrate specificity) [11, 30]: 101%
- relative activity (substrate specificity) [12, 31]: 147%

SMILES: N#CCCCCC#N [Adiponitrile]
- Specific activity ([18]; strain E3733): 0.214 μmol/ml/min/OD
- Total activity ([18]; strain E3733): 0.347 µmol/mL/min
- Growth (OD610 nm) ([18]; strain E3733, nitrile as substrate in enrichment medium): 1.62 OD610 nm
- Specific activity ([19]; strain E3736): 2.21 μmol/ml/min/OD
- Total activity ([19]; strain E3736): 3.00 µmol/mL/min
- Growth (OD610 nm) ([19]; strain E3736, nitrile as substrate in enrichment medium): 1.36 OD610 nm
- Specific activity ([20]; strain NE31): 0.141 μmol/ml/min/OD
- Total activity ([20]; strain NE31): 0.377 µmol/mL/min
- Growth (OD610 nm) ([20]; strain NE31, nitrile as substrate in enrichment medium): 2.68 OD610 nm

SMILES: N#CCCCCCCCC#N [Azelanitrile]
- Specific activity ([21]; strain 45A32): 3.23 μmol/ml/min/OD
- Total activity ([21]; strain 45A32): 18.8 µmol/mL/min
- Growth (OD610 nm) ([21]; strain 45A32, nitrile as substrate in enrichment medium): 5.81 OD610 nm
- Specific activity ([22]; strain NA40): 5.57 μmol/ml/min/OD
- Total activity ([22]; strain NA40): 33.0 µmol/mL/min
- Growth (OD610 nm) ([22]; strain NA40, nitrile as substrate in enrichment medium): 5.92 OD610 nm

SMILES: N#CCC(=O)O [Cyanoacetic acid]
- Specific activity ([23]; strain C15): 3.43 μmol/ml/min/OD
- Total activity ([23]; strain C15): 7.01 µmol/mL/min
- Growth (OD610 nm) ([23]; strain C15, substrate in enrichment medium): 2.04 OD610 nm

SMILES: N#Cc1ccc(Cl)cc1 [p-Chlorobenzonitrile]
- Relative activity [5]: 16%
- Relative activity, Enzyme reaction [6]: 13%
- relative activity (substrate specificity) [8]: 13%
- relative activity (substrate specificity) [9]: 0%
- relative activity (substrate specificity) [10]: 0%
- relative activity (substrate specificity) [11]: 0%
- relative activity (substrate specificity) [12]: 0%
- Total activity [24]: 2.30 µmol/mL/min

Reference: patent publication US7666635B2, “Process for the preparation of amides” (priority 1997, dated 2010)
